Source: patent US20090069418A1, “Compositions and Methods for the Treatment of Disorders Associated with Aberrant Vasodilation” (priority 2007, published 2009)
Read-outs that look alike come from different tables or passages of the source.

Assays:
[1] = Pharmacokinetics of AUDA-BE and its metabolites in plasma after single intraperitoneal injection; format: in vivo, C57Bl/6 mice
Protocol: A second set of animals was injected with sesame oil alone (vehicle). […] (2002) Biochem. Pharmacol., 63:1599-608; Watanabe et al. (2006) Anal. Chim. Acta., 559:37-44). Briefly, blood samples (10 μL) were collected in 1.5 mL Eppendorf microcentrifuge tubes, weighed, and vortexed with 100 μL of purified water. […] Aliquots (10 μL) were analyzed by liquid chromatography coupled mass spectroscopy LC-MS/MS (Watanabe et al. (2006) Anal. Chim. Acta., 559:37-44; Watanabe and Hammock (2001) Anal. Biochem., 299:227-34). The concentration of sEH inhibitors were quantified in extracts using HPLC with positive mode electrospray ionization and tandem mass spectrometry. Analytes were quantified on a 5-point curve with internal standard methods. Surrogate recoveries were evaluated by quantification against the internal standard. Surrogate recoveries were 70% for all reported plasma samples, the analysis of reagent blanks, matrix spikes, and analytical replicates were used to document method stability during this study. […] Differences in infarct size, enzyme activity, and blood flow rates were analyzed with a t-test for two groups and analysis of variance with post hoc Newman-Keuls multiple range test for multiple groups. The pharmacokinetic profile was examined for goodness of fit to a noncompartmental or multicompartmental models. Pharmacokinetic parameters were then obtained by fitting the blood-concentration-time data to a non-compartmental model with the WinNonlin software (Pharsight, Mountain View, Calif., USA), as described previously (Watanabe et al. (2006) Anal. Chim. Acta., 559:37-44). The criterion for statistical significance was set at P<0.05. All values are reported as mean±s.e.m.

[2] = AUDA-BE and its metabolites measured in brain tissue; format: in vivo, mice
Text: This concentration was also biologically effective in lowering blood pressure in hypertensive model (Imig et al. (2005) Hypertension 46:975-81). Therefore, in these experiments, the levels of sEH inhibitors in the blood are in the concentration range expected to inhibit the enzyme.

C57Bl/6 mice = assay: Middle cerebral artery occlusion in mice, infarct size (Example 2); format: in vivo; conditions: for infarct size after 2-hour MCAO: vehicle 33±2%; for reduction of infarct size compared with vehicle: 10 mg/kg
Protocol: (2001) J. Neurosci., 21:7543-50). […] A small laser-Doppler probe was affixed to the skull to monitor cortical perfusion and verify vascular occlusion and reperfusion. […] After securing the filament in place, the surgical site was closed, and the animal was awakened and assessed at 2 hours of occlusion for neurological deficit using a simple neurological scoring system as follows: 0=no deficit, 1=failure to extend forelimb, 2=circling, 3=unilateral weakness, 4=no spontaneous motor activity. Mice with clear neurological deficit were re-anesthetized, laser-Doppler probe re-positioned over same site on the skull, and the occluding filament was withdrawn to allow for reperfusion. Mice were then allowed to recover and observed for 1 day. […] Slices were photographed, and infarcted (unstained) and uninfarcted (red color) areas were measured with MCID software (InterFocus Imaging Ltd, Linton, UK) and integrated across all five slices. To account for the effect of edema, the infarcted area was estimated indirectly by subtracting the uninfarcted area in the ipsilateral hemisphere from the contralateral hemisphere, and expressing infarct volume as a percentage of contralateral hemisphere. […] (2000) J. Physiol. Pharmacol., 51:655-72). […] Animals were randomly assigned to treatment groups.

mice = format: in vivo
Text: Male mice between the ages of 16-24 weeks were anesthetized with isoflurane (induction 4-5 vol %; maintenance 1-2 vol %), intubated with a 20G plastic IV catheter, and mechanically ventilated using a rodent ventilator (Inspira, volume-controlled, Harvard Apparatus, MA). ECG and rectal temperature were continuously monitored using a PC-based recording device (PowerLab 8/30, ADInstruments, Colorado Springs, Colo.). The animals were positioned in a right lateral decubital position on a heating pad and rectal temperature was maintained at 37° C. throughout the experiment. A PE-10 catheter was inserted into the left jugular vein for intravenous drug infusion. Using a dissecting microscope, a left-sided thoracotomy was performed in the 4th intercostal space. […] A ligature (8-0 Monosof MV-135-4, ⅜ 5 mm tapered needle, Syneture, Norwalk, Colo.) was placed around the left coronary artery (LCA) approximately 2 mm distal to the left atrial margin. The suture was fed through a short section of PE-10 tubing to form a snare to allow temporary occlusion. The LCA was occluded for 40 minutes; occlusion was confirmed by persistent ECG changes during occlusion and visual paling of the left ventricle (LV). After 40 minutes the snare was released and reperfusion was confirmed with visual hyperemia of the LV and return of the ECG changes. After 2 hours of reperfusion the LCA was re-occluded and fluorescent polymer microspheres (0.4% solution, diameter 1-10 μm; Duke Scientific Corporation, Palo Alto, Calif.) were infused via needle puncture of the LV apex. […] Heart was then excised, rinsed in normal saline, and the right and left atria were removed under the dissecting microscope. The remaining left and right ventricles were weighed and then sliced into seven sections (d=1 mm) for imaging and staining.
Heart sections were immediately photographed with a digital camera (Canon Powershot A620) under UV light for determination of AAR. Infarct size (I) was determined by staining the heart sections in 1% 2,3,5 triphenyltetrazolium chloride (TTC) in phosphate buffer at pH 7.4 for 10 minutes, followed by 10% neutral buffered formalin (NBF) bath overnight. Pictures were taken the next day under full spectrum light. TTC stained non-infarcted myocardium red, while infarcted myocardium remained white. Both AAR and I areas were calculated in a blinded fashion using standard imaging software (Photoshop Elements 4). A calibration ruler was present in each picture to convert pixels into volume. TTC slices were volume corrected for dehydration following formalin immersion.
The 14,15-EET was obtained from BIOMOL (Plymouth Meeting, Pa.). It was dissolved in a vehicle composed of 100% ethanol and saline (1:3), resulting in a final ethanol solution of 25%. […] SNC-162, a non-peptide δ-opioid receptor agonist, was used for comparison of the magnitude of cardioprotection found within the epoxide pathway. SNC-162 (0.1 μg/g iv over 10 minutes) was dissolved in 10% DMSO.

SMILES: CCCCOC(=O)CCCCCCCCCCCNC(=O)NC12CC3CC(CC(C3)C1)C2 [AUDA-BE, 12-(3-adamantane-1-yl-ureido)-dodecanoic acid butyl ester]
- adverse effects during the 24-hour period after drug administration ([1]; 10 or 40 mg/kg doses): No apparent adverse effects
- detection of parent drug in plasma ([1]; AUDA-BE 10 mg/kg intraperitoneal): only the metabolites AUDA and AUBA were detected
- maximum concentration in plasma ([1]; AUDA-BE 40 mg/kg intraperitoneal, within the first hour): 2 µmol/L
- levels detected in homogenates of brain tissue ([2]; after AUDA-BE injection, methanol/chloroform extraction): not
- crossing the blood brain barrier (BBB) ([2]; mouse, in vivo): capable of crossing the blood brain barrier
- infarct size after 2-hour MCAO (C57Bl/6 mice; 10 mg/kg intraperitoneally 1 hour before (pre)): 20±5%
- infarct size after 2-hour MCAO (C57Bl/6 mice; 10 mg/kg intraperitoneally at the time of reperfusion (post)): 16±6%
- reduction of infarct size compared with vehicle (C57Bl/6 mice; 1 hour before (pre)): 40%
- reduction of infarct size compared with vehicle (C57Bl/6 mice; at the time of reperfusion (post)): 50%
- infarct size after MCAO (C57Bl/6 mice; AUDA-BE 10 mg/kg at reperfusion combined with MS-PPOH (0.5 mg/200 mL over 24 hours before MCAO, osmotic minipump)): 34±7%
- Infarct Volume (mice; PRO (given prior to reperfusion)): 15 ± 3 mm^3
- infarct size after myocardial I/R compared to vehicle (mice; given before ischemia or before reperfusion): significantly reduced infarct size
- Infarct Volume (mice; given prior to LCA occlusion (PRE)): 12 ± 2 mm^3
